Earlier results, collected in paper PMC4962924 (Chemistry (Weinheim an der Bergstrasse, Germany), 2016).

Tested on: Hsp90
Conditions: natural product C-terminal inhibitors; ref [25],[26]

SMILES | IC50 [µM]
CO[C@H]1[C@H](OC(=O)c2ccc(C)[nH]2)[C@H](O)[C@@H](Oc2ccc3c(O)c(NC(=O)c4c[nH]c(C(=O)Nc5c(O)c6ccc(O[C@H]7OC(C)(C)[C@@H](OC)[C@H](OC(=O)c8ccc(C)[nH]8)[C@@H]7O)c(C)c6oc5=O)c4C)c(=O)oc3c2C)OC1(C)C [coumermycin A1] | 70
